Results on 1 substance are retold here after patent publication US20110300129A1, “SYSTEMS AND METHODS FOR ENHANCING VACCINE EFFICACY” (UNIVERSITY OF ROCHESTER, priority 2008, published 2011).

Where only a bound is given, the exact number is not on record here.

Series [1] concerns Cox-2 expression in B cells. Nature of the series: Cox-2 intracellular staining of CD19+ B cells, flow cytometry. The format is cell-based, human. How it is done: Intracellular and Surface Labeling: B cells were incubated with mouse anti-human CD19-APC (BD Biosciences), anti-human CD38-PE (BD Biosciences) and/or anti-human CD27-APC (BD Biosciences) in cold PBS with sodium azide (0.02%) and BSA (0.3%) for 20 min at 20° C. […] All samples were acquired on a BD Biosciences FACS Calibur flow cytometer and analyzed using FlowJo software (Tree Star, Inc. Ashland, Oreg.).
Therefore, the levels of Cox-2 expression were evaluated following PPARγ ligand treatment.
(A flow cytometer gives signals particle by particle.)

Series [2] has as its system BLIMP-1 expression in B cells. Nature of the series: BLIMP-1 expression in B cells, Western blot densitometry. In kind it is cell-based, human. To be noted: CpG treatment. How it is done: Western Blots: Whole cell extracts were collected using ELB buffer (50 mM HEPES (pH 7), 250 mM NaCl, 0.1% Nonidet P-40, 5 mM EDTA, 10 mM NaF, 0.1 mM Na3VO4, 50 μM ZnCl2, supplemented with 0.1 mM PMSF, 1 mM DTT, and a mixture of protease and phosphatase inhibitors) and total protein was quantified using bicinchoninic acid protein assay (BCA assay kit) (Pierce, Rockford, Ill.). Twenty-five micrograms of protein was electrophoresed on 8-16% Precise™ protein gels (Pierce, Rockford, Ill.) and transferred to polyvinylidene fluoride (PVDF) membrane (Millipore, Billerica, Mass.). The membranes were analyzed for immunoreactivity with the indicated primary antibody, washed and then incubated with an appropriate horseradish peroxidase-conjugated secondary antibody. The membranes were visualized by chemiluminescence using an ECL kit (Pierce, Rockford, Ill.).
Lastly, BLIMP-1 expression was evaluated. BLIMP-1 is a transcription factor important in B cell differentiation (Shaffer et al., “Blimp-1 Orchestrates Plasma Cell Differentiation by Extinguishing the Mature B Cell Gene Expression Program,” Immunity 17:51-62 (2002), which is hereby incorporated by reference in its entirety). […] When B cells were treated with a combination of CpG and PPARγ ligands, there was a further increase in BLIMP-1 expression.

In series [3] the test system is PPARγ expression in human B cells. Kind of series: Intracellular PPARγ staining of B cells, flow cytometry. In kind it is cell-based. The conditions noted are these: activated B cells. The protocol:
For intracellular staining for PPARγ, untreated or activated B lymphocytes were surface stained with 20 μl of APC anti-human CD19 mAb (BD Biosciences) for 30 minutes in the dark at room temperature (RT). Cells were then fix and permeabilized with BD Cytofix/Cytoperm Fixation/Permeabilization Kit following the manufacturer's instructions. A FITC-Conjugated anti-human PPARγ antibody was used at a 1/100 dilution. An equal amount of IgG1 FITC mAb was used as an isotype control.

In a further series the test system is peripheral blood B cells. Kind of series: Plasma cell differentiation, CD38/CD27 surface labeling by flow cytometry. The format is cell-based, human. To be noted: CpG 1 μg/ml, 5 days, 9-cis-RA 100 nM. How it is done:
Intracellular and Surface Labeling: B cells were incubated with mouse anti-human CD19-APC (BD Biosciences), anti-human CD38-PE (BD Biosciences) and/or anti-human CD27-APC (BD Biosciences) in cold PBS with sodium azide (0.02%) and BSA (0.3%) for 20 min at 20° C. COX-2 intracellular staining was performed as described previously (Padilla et al., “Human B Lymphocytes and B Lymphomas Express PPAR-γ and Are Killed by PPAR-γ Agonists,” Clin Immunol 103:22-33 (2002), which is hereby incorporated by reference in its entirety). All samples were acquired on a BD Biosciences FACS Calibur flow cytometer and analyzed using FlowJo software (Tree Star, Inc. Ashland, Oreg.).
Peripheral-blood B lymphocytes include both naive and memory B cell populations. These two B cell subsets can be distinguished based on CD27 expression, which is a marker of memory B cells (Agematsu et al., “CD27: A Memory B-cell Marker,” Immunol Today 21:204-206 (2000), each of which is hereby incorporated by reference in its entirety).

Series [4] concerns purified human B lymphocytes. Kind of series: Antibody production, IgM and IgG ELISA of B cell supernatants. In kind it is cell-based. The conditions noted are these: CpG 1 μg/ml alone, 5 days. How it is done: Antibody Production: Purified human B lymphocytes (5×10^5 cells/ml) were cultured in 96-well round-bottom microtiter plates. […] Pilot experiments were performed to optimize the doses of PPARγ and RXR ligands. […] Supernatants were harvested and the concentrations of IgM and IgG were analyzed using human-specific ELISAs (Bethyl Laboratories).

For another series, the target named is T1, PPARγ (Homo sapiens, UniProt P37231).
T1 construct: normal B cells were transfected with a PPARγ luciferase reporter construct; endogenous in cells
T1 sequence (P37231 1-505): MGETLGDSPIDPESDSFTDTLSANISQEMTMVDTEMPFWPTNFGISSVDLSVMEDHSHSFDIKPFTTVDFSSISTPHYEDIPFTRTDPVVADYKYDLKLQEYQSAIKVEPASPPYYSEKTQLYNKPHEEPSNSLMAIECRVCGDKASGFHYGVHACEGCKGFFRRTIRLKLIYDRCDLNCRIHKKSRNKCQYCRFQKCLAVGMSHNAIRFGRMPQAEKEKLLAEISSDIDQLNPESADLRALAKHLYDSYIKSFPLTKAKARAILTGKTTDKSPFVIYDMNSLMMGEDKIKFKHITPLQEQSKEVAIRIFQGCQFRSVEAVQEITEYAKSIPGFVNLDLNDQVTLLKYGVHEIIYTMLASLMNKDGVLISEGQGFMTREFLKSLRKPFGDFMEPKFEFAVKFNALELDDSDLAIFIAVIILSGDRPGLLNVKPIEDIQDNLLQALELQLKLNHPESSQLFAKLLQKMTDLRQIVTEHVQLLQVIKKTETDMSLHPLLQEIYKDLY
Nature of the series: PPARγ gene reporter analysis (PPRE-luciferase) in transfected B cells. In kind it is cell-based. The conditions noted are these: CpG-activated B cells with no exogenous PPARγ ligand. How it is done:
Twenty-four hours after treatments, luciferase activity was assayed using the Promega Luciferase Assay System (Madison, Wis.). Relative light units (RLU) were determined with a Lumicount Microplate Luminometer (Packard Instrument Co., Meriden, Conn., USA). Relative light units (RLU) were normalized to transfection efficiency that was monitored by cotransfection of GFP expression vector.
To test whether the PPARγ ligand concentrations used here activated PPARγ, normal B cells were transfected with a PPARγ luciferase reporter construct.

The test system of series [5] is PPARγ expression in human B cells. Kind of series: PPARγ expression in activated B cells, Western blot densitometry. The format is cell-based. The conditions noted are these: 48 hr; 2 μg/ml anti-IgM Ab, 1 μg/ml CpG; three donors; 'up to'. The text has this:
B Cell Isolation: Normal B lymphocytes were isolated from a unit of whole blood from healthy donors with ethical permission from the Research Subjects Review Board at the University of Rochester. The isolation of normal B lymphocytes has been previously described (Ryan, et al., “Activated Human B Lymphocytes Express Cyclooxygenase-2 and Cyclooxygenase Inhibitors Attenuate Antibody Production,” J Immunol 174:2619-2626 (2005), which is hereby incorporated by reference in its entirety). Briefly, buffy coats were obtained from whole blood and peripheral blood mononuclear cells (PBMCs) were obtained using Ficoll-Paque (Amersham Biosciences AB) gradient centrifugation. […] B lymphocyte purity was >98% CD19 positive (as determined by flow cytometry, data not shown). […]
Western Blots: Whole cell extracts were collected using ELB buffer (50 mM HEPES (pH 7), 250 mM NaCl, 0.1% Nonidet P-40, 5 mM EDTA, 10 mM NaF, 0.1 mM Na3VO4, 50 μM ZnCl2, supplemented with 0.1 mM PMSF, 1 mM DTT, and a mixture of protease and phosphatase inhibitors) and total protein was quantified using bicinchoninic acid protein assay (BCA assay kit) (Pierce, Rockford, Ill.). […] The membranes were analyzed for immunoreactivity with the indicated primary antibody, washed and then incubated with an appropriate horseradish peroxidase-conjugated secondary antibody. […]
Background: In western blotting, separated proteins are transferred to a membrane and probed.

For “CpG: CpG oligodeoxynucleotides 2395 5′-TCGTCGTTTTCGGCGCGCGCCG-3′ (SEQ ID NO: 1), a TLR-9 ligand, mitogen (chemistry not given here)”, in series [1] (CpG 1 μg/ml, Rosiglitazone 0.5 μM, 15d-PGJ2 0.2 μM, 3% untreated), the “percentage of B cells which express Cox-2” value is given as 27%. In addition, the “levels of Cox-2 expression (mean fluorescence intensity)” value in series [1] (FIG. 6B) is given as “increased the levels of Cox-2 expression”. Besides, in series [2], the “BLIMP-1 protein levels compared to untreated or freshly isolated B cells” value is on record as “significantly upregulated”. Further, in series [3], the “intracellular PPARγ levels compared to untreated B cells” value is “increased”. In the series with peripheral blood B cells, the “percentage of CD38-expressing naive B cells (CD38highCD27low)” value was determined as 9.1±0.6%. For the same substance, the “percentage of CD38highCD27high B cells (plasma cells)” value in the series on peripheral blood B cells (Rosiglitazone 0.5 μM, 15d-PGJ2 0.2 μM) was 7.0±1.7%. Also, in series [4], the IgG production entry is reported as “significantly induced” and the IgM production result was “significantly induced”. In the series with PPARγ, the “PPARγ activity (PPRE reporter)” value is on record as “did not induce PPARγ activity”. Moreover, the “PPARγ protein levels increase compared to untreated B cells (densitometry of Western blot)” value in series [5] was at most 14.3 fold.
